Assay results from PMC9694544, “Conteltinib (CT-707) in patients with advanced ALK-positive non-small cell lung cancer: a multicenter, open-label, first-in-human phase 1 study” (BMC Medicine, 2022).

Tested on: patients with ALK-positive NSCLC
Assay: Phase 1 safety assessment (TRAEs by CTCAE 4.03, DLT, MTD, RP2D)
Assay type: in vivo, human
Protocol: In the dose-escalation phase, the dose was escalated sequentially from a low to a high level with a 3 + 3 dose-escalation scheme based on the modified Fibonacci method. The starting dose for conteltinib was 50 mg orally quaque die (QD). Dose escalation proceeded to the next six cohorts of 100 mg, 200 mg, 300 mg, 450 mg, 600 mg, and 800 mg QD. For each dose, there was a PK lead-in phase where a single dose was given 7 days before cycle 1 day 1. Then, each dose was taken continuously in a 28-day cycle. The first cycle was for dose-limiting toxicity (DLT) investigation. When one of three patients experienced a DLT in a dose cohort, three additional patients were enrolled in the same dose cohort to assess the dose level in a total of six patients. All patients received conteltinib until disease progression, unacceptable toxicity, or withdrawal of consent. Patients received follow-up safety assessments for 30 days (±7 days) after the last conteltinib dose.
In the dose-expansion phase, each dose was taken continuously in a 28-day cycle. At the end of each cycle, a safety evaluation was conducted. If patients met the criteria to enter the next cycle, treatment with conteltinib was continued for subsequent cycles. All patients received conteltinib until disease progression, unacceptable toxicity, or withdrawal of consent. Patients received follow-up safety assessments for 30 days (±7 days) after the last dose of conteltinib.
The safety of conteltinib was assessed in safety set (SS) which was based on the National Cancer Institute Common Terminology Criteria for Adverse Events (CTCAE) version 4.03, laboratory tests, vital signs, ECG, and clinical observations. […] Adverse events (AEs) were judged to be treatment-related or not by investigators.
DLTs were AEs occurring in the first cycle of treatment (28 days) that were attributed to conteltinib, and the criteria were grade 4 neutropenia lasting ≥ 7 days, febrile neutropenia, grade 3 thrombocytopenia, grade 3 non-hematologic toxicity, and any conteltinib-related toxicity resulting in treatment delay > 2 weeks or discontinuation of conteltinib treatment at the assigned dose level. Besides, grade 3 nausea, vomiting, or diarrhea for ≥ 3 days or grade 4 nausea, vomiting, or diarrhea of any duration was considered as a DLT. The MTD was defined as the dose of conteltinib that would be closest to but not higher than a 33% probability of a DLT.

COc1cc(N2CCC(N3CCN(C)CC3)CC2)ccc1Nc1nc2c(c(Nc3ccccc3S(=O)(=O)NC(C)C)n1)CCN2 [Conteltinib]
TRAE Hypertriglyceridemia (800 mg QD (n=4), Grade ≥ 3): 0 (0.0) n (%) | TRAE Hyperuricemia (800 mg QD (n=4), Grade ≥ 3): 0 (0.0) n (%) | TRAE Hypoalbuminemia (800 mg QD (n=4), Grade ≥ 3): 0 (0.0) n (%) | TRAE Nausea (800 mg QD (n=4), Grade ≥ 3): 0 (0.0) n (%) | TRAE Proteinuria (800 mg QD (n=4), Grade ≥ 3): 0 (0.0) n (%) | TRAE Serum creatinine elevated (800 mg QD (n=4), Grade ≥ 3): 0 (0.0) n (%) | TRAE Vomiting (800 mg QD (n=4), Grade ≥ 3): 0 (0.0) n (%) | TRAE Weight loss (800 mg QD (n=4), Grade ≥ 3): 0 (0.0) n (%) | TRAE γ-GGT elevated (800 mg QD (n=4), Grade ≥ 3): 0 (0.0) n (%) | DLTs (800 mg QD cohort): No DLTs were observed | patients with permanent discontinuation due to TRAE (64 patients, impaired liver function): 3.1% | patients with TRAEs leading to conteltinib interruption (64 patients, serum creatinine elevated and impaired liver function): 6.3% | patients with TRAEs leading to dose reduction (64 patients, serum creatinine elevated, neutropenia, impaired liver function): 4.7% | patients with grade ≥ 3 TRAEs (SS, 64 patients): 14.1% | TRAE ALT elevated (SS, 64 patients, all grades): 34.4% | TRAE AST elevated (SS, 64 patients, all grades): 39.1% | TRAE Abdominal pain (SS, 64 patients, all grades): 26.6% | TRAE Abdominal pain upper (SS, 64 patients, all grades): 17.2% | TRAE Appetite decreased (SS, 64 patients, all grades): 18.75% | TRAE Conjugated bilirubin elevated (SS, 64 patients, all grades): 10.9% | TRAE Diarrhea (SS, 64 patients, all grades): 71.9% | TRAE Hypercholesterolemia (SS, 64 patients, all grades): 12.5% | TRAE Hyperglycemia (SS, 64 patients, all grades): 15.6% | TRAE Hypertriglyceridemia (SS, 64 patients, all grades): 23.4% | TRAE Hyperuricemia (SS, 64 patients, all grades): 31.25% | TRAE Hypoalbuminemia (SS, 64 patients, all grades): 17.2% | TRAE Nausea (SS, 64 patients, all grades): 37.5% | TRAE Proteinuria (SS, 64 patients, all grades): 21.9% | TRAE Serum creatinine elevated (SS, 64 patients, all grades): 45.3% | TRAE Vomiting (SS, 64 patients, all grades): 35.9% | TRAE Weight loss (SS, 64 patients, all grades): 28.1% | TRAE γ-GGT elevated (SS, 64 patients, all grades): 32.8% | patients with TRAEs (SS, 64 patients, all grades): 90.6% | TRAE Conjugated bilirubin elevated (SS, 64 patients, grade ≥ 3): 1.6% | TRAE Diarrhea (SS, 64 patients, grade ≥ 3): 3.1% | TRAE Serum creatinine elevated (SS, 64 patients, grade ≥ 3): 1.6% | TRAE γ-GGT elevated (SS, 64 patients, grade ≥ 3): 7.8% | Patients with any TRAE (Total (n=64), All grade): 58 (90.6) n (%) | TRAE ALT elevated (Total (n=64), All grade): 22 (34.4) n (%) | TRAE AST elevated (Total (n=64), All grade): 25 (39.1) n (%) | TRAE Abdominal pain (Total (n=64), All grade): 17 (26.6) n (%) | TRAE Abdominal pain upper (Total (n=64), All grade): 11 (17.2) n (%) | TRAE Appetite decreased (Total (n=64), All grade): 12 (18.8) n (%) | TRAE Conjugated bilirubin elevated (Total (n=64), All grade): 7 (10.9) n (%) | TRAE Diarrhea (Total (n=64), All grade): 46 (71.9) n (%) | TRAE Hypercholesterolemia (Total (n=64), All grade): 8 (12.5) n (%) | TRAE Hyperglycemia (Total (n=64), All grade): 10 (15.6) n (%) | TRAE Hypertriglyceridemia (Total (n=64), All grade): 15 (23.4) n (%) | TRAE Hyperuricemia (Total (n=64), All grade): 20 (31.3) n (%) | TRAE Hypoalbuminemia (Total (n=64), All grade): 11 (17.2) n (%) | TRAE Nausea (Total (n=64), All grade): 24 (37.5) n (%) | TRAE Proteinuria (Total (n=64), All grade): 14 (21.9) n (%) | TRAE Serum creatinine elevated (Total (n=64), All grade): 29 (45.3) n (%) | TRAE Vomiting (Total (n=64), All grade): 23 (35.9) n (%) | TRAE Weight loss (Total (n=64), All grade): 18 (28.1) n (%) | TRAE γ-GGT elevated (Total (n=64), All grade): 21 (32.8) n (%) | Patients with any TRAE (Total (n=64), Grade 1–2): 58 (90.6) n (%) | TRAE ALT elevated (Total (n=64), Grade 1–2): 22 (34.4) n (%) | TRAE AST elevated (Total (n=64), Grade 1–2): 25 (39.1) n (%) | TRAE Abdominal pain (Total (n=64), Grade 1–2): 17 (26.6) n (%) | TRAE Abdominal pain upper (Total (n=64), Grade 1–2): 11 (17.2) n (%) | TRAE Appetite decreased (Total (n=64), Grade 1–2): 12 (18.8) n (%) | TRAE Conjugated bilirubin elevated (Total (n=64), Grade 1–2): 6 (9.4) n (%) | TRAE Diarrhea (Total (n=64), Grade 1–2): 44 (68.8) n (%) | TRAE Hypercholesterolemia (Total (n=64), Grade 1–2): 8 (12.5) n (%) | TRAE Hyperglycemia (Total (n=64), Grade 1–2): 10 (15.6) n (%) | TRAE Hypertriglyceridemia (Total (n=64), Grade 1–2): 15 (23.4) n (%) | TRAE Hyperuricemia (Total (n=64), Grade 1–2): 20 (31.3) n (%) | TRAE Hypoalbuminemia (Total (n=64), Grade 1–2): 11 (17.2) n (%) | TRAE Nausea (Total (n=64), Grade 1–2): 24 (37.5) n (%) | TRAE Proteinuria (Total (n=64), Grade 1–2): 14 (21.9) n (%) | TRAE Serum creatinine elevated (Total (n=64), Grade 1–2): 28 (43.8) n (%) | TRAE Vomiting (Total (n=64), Grade 1–2): 23 (35.9) n (%) | TRAE Weight loss (Total (n=64), Grade 1–2): 18 (28.1) n (%) | TRAE γ-GGT elevated (Total (n=64), Grade 1–2): 16 (25.0) n (%) | Patients with any TRAE (Total (n=64), Grade ≥ 3): 9 (14.1) n (%) | TRAE ALT elevated (Total (n=64), Grade ≥ 3): 0 (0.0) n (%) | TRAE AST elevated (Total (n=64), Grade ≥ 3): 0 (0.0) n (%) | TRAE Abdominal pain (Total (n=64), Grade ≥ 3): 0 (0.0) n (%) | TRAE Abdominal pain upper (Total (n=64), Grade ≥ 3): 0 (0.0) n (%) | TRAE Appetite decreased (Total (n=64), Grade ≥ 3): 0 (0.0) n (%) | TRAE Conjugated bilirubin elevated (Total (n=64), Grade ≥ 3): 1 (1.6) n (%) | TRAE Diarrhea (Total (n=64), Grade ≥ 3): 2 (3.1) n (%) | TRAE Hypercholesterolemia (Total (n=64), Grade ≥ 3): 0 (0.0) n (%) | TRAE Hyperglycemia (Total (n=64), Grade ≥ 3): 0 (0.0) n (%) | TRAE Hypertriglyceridemia (Total (n=64), Grade ≥ 3): 0 (0.0) n (%) | TRAE Hyperuricemia (Total (n=64), Grade ≥ 3): 0 (0.0) n (%) | TRAE Hypoalbuminemia (Total (n=64), Grade ≥ 3): 0 (0.0) n (%) | TRAE Nausea (Total (n=64), Grade ≥ 3): 0 (0.0) n (%) | TRAE Proteinuria (Total (n=64), Grade ≥ 3): 0 (0.0) n (%) | TRAE Serum creatinine elevated (Total (n=64), Grade ≥ 3): 1 (1.6) n (%) | TRAE Vomiting (Total (n=64), Grade ≥ 3): 0 (0.0) n (%) | TRAE Weight loss (Total (n=64), Grade ≥ 3): 0 (0.0) n (%) | TRAE γ-GGT elevated (Total (n=64), Grade ≥ 3): 5 (7.8) n (%) | DLTs (dose-expansion phase): No DLTs were observed | MTD (doses 50 to 800 mg QD): not reached | deaths during treatment (in vivo): No patients died | rash (this study): 6.25% | visual effects (this study): 1.6%
